The assay deals with ⍺4β7. The assay is described as follows: SPR: inhibition by linear peptides of soluble ⍺4β7 binding to a gp120 V2 (cV2 92TH023) surface. The conditions noted are these: Fig 7C, 7E. The text has this: To determine if this is the case, we employed an SPR -based assay. Biosensor surfaces were coated with either CD4 D1D2 or a 42 aa cyclic V2 peptide derived from the subtype E 92TH023 gp120 (cV2 92TH023). A third surface coated with MAdCAM-Ig was employed as a positive control. Soluble ⍺4β7 was passed over these surfaces. We then evaluated the capacity of staggered 15 aa peptides that span either CD4 D2 or gp120 V2 to inhibit this interaction (Fig 7A).
Fig 7 Reciprocal inhibition of gp120 V2 and CD4 binding to ⍺4β7 by D2 and V2 peptides. SPR measurements of soluble ⍺4β7 (analyte) binding to biosensor surfaces coated with CD4 D1D2, 92TH023 cyclic peptide, or MAdCAM-Ig in the absence or presence of either CD4 D2 or gp120 V2 peptides, as indicated. (A) List of overlapping 15 aa peptides corresponding to residues 157–187 of CD4 and residues 158–192 of gp120 V2 (subtype B consensus sequence). (B) Binding of ⍺4β7 to sCD4 D1D2 +/- CD4 D2 peptides. X-axis indicates ⍺4β7 mass bound (RU) at the end of the association phase. (C) Binding of ⍺4β7 to 92TH023 +/- gp120 V2 peptides. (D) Binding of ⍺4β7 to sCD4 D1D2 +/- gp120 V2 peptides. (E) Binding of ⍺4β7 to 92TH023 +/- CD4 D2 peptides. […]
Experiments were performed using a Biacore 3000 instrument (Cytiva Life Sciences) using CM4 or CM5 sensor chips. The data were evaluated using BIAevaluation 4.1.1 software (Cytiva Life Sciences). […]
On the technique in general: In SPR one partner is held on a chip, and binding of the other changes the refractive index at the surface.

The record followed here is paper PMC10732398 (PLOS Pathogens, 2023).

Take “QKKVEFKIDIVVLA [CD4 P42, linear CD4 D2 peptide, residues 165-178, G β-strand]”: the “inhibition of gp120 binding to ⍺4β7 (in words)” value is on record as “inhibits gp120 binding to ⍺4β7”.
